# Results from patent publication US20150175599A1, “FAAH Inhibitors” (Ironwood Pharmaceuticals, Inc., priority 2010, published 2015).
# Assay: Pharmacokinetic study, plasma level 2 hours after oral dosing in rats
# Format: in vivo
# How it was run: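 Rats dosed by oral gavage in 1% DMA/99% Vitamin E TPGS; EDTA plasma taken by retro-orbital bleed 2 h post-dose. Acetonitrile precipitation with internal standard, LC/MS/MS quantitation against plasma standards 0.1–3000 ng/mL.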
row,Structure (SMILES),"2 hr plasma level-ng/mL (rat, 10 mg/kg PO, 2 hr)"
1,"COc1cc(NC(=O)C(=O)c2c(C)n(Cc3ccc(F)cn3)c3ccc(C)cc23)ccn1 [Compound 85, 2-(1-((5-fluoropyridin-2-yl)methyl)-2,5-dimethyl-1H-indol-3-yl)-N-(2-methoxypyridin-4-yl)-2-oxoacetamide]",D (D = greater than 1000 nM)
2,"COc1ccc2c(c1)c(C(=O)C(=O)Nc1ccnc(OC)c1)c(C)n2Cc1ncc(Cl)cc1F [Compound 87, 2-(1-((5-chloro-3-fluoropyridin-2-yl)methyl)-5-methoxy-2-methyl-1H-indol-3-yl)-N-(2-methoxypyridin-4-yl)-2-oxoacetamide]",D (D = greater than 1000 nM)
3,"COc1cc(NC(=O)C(=O)c2c(C)n(Cc3ccc(Cl)cn3)c3cc(Cl)c(C)cc23)ccn1 [Compound 94, 2-(6-chloro-1-((5-chloropyridin-2-yl)methyl)-2,5-dimethyl-1H-indol-3-yl)-N-(2-methoxypyridin-4-yl)-2-oxoacetamide]",D (D = greater than 1000 nM)
4,"COc1ccc2c(c1)c(C(=O)C(=O)Nc1ccnc(OC)c1)c(C)n2Cc1ccc(Cl)nn1 [Compound 86, 2-(1-((6-chloropyridazin-3-yl)methyl)-5-methoxy-2-methyl-1H-indol-3-yl)-N-(2-methoxypyridin-4-yl)-2-oxoacetamide]",D (D = greater than 1000 nM)
5,"COc1ccc2c(c1)c(C(=O)C(=O)Nc1ccnc(OC)c1)c(C)n2Cc1ccc(C)cn1 [Compound 84, 2-(5-methoxy-2-methyl-1-((5-methylpyridin-2-yl)methyl)-1H-indol-3-yl)-N-(2-methoxypyridin-4-yl)-2-oxoacetamide]",D (D = greater than 1000 nM)
6,"COc1ccc2c(c1)c(C(=O)C(=O)Nc1ccnc(OC)c1)c(C)n2Cc1ccc(Cl)cn1 [Compound 79, 2-(1-((5-chloropyridin-2-yl)methyl)-5-methoxy-2-methyl-1H-indol-3-yl)-N-(2-methoxypyridin-4-yl)-2-oxoacetamide]",D (D = greater than 1000 nM)
7,"COc1cc(NC(=O)C(=O)c2c(C)n(Cc3ccc(Cl)cc3)c3cc(Cl)c(C)cc23)ccn1 [Compound 93, 2-(6-chloro-1-(4-chlorobenzyl)-2,5-dimethyl-1H-indol-3-yl)-N-(2-methoxypyridin-4-yl)-2-oxoacetamide]",C (C = between 100 nM and 1000 nM)
8,"COc1ccc2c(c1)c(C(=O)C(=O)Nc1ccnc(OC)c1)c(C)n2Cc1ncc(Cl)cc1Cl [Compound 82, 2-(1-((3,5-dichloropyridin-2-yl)methyl)-5-methoxy-2-methyl-1H-indol-3-yl)-N-(2-methoxypyridin-4-yl)-2-oxoacetamide]",D (D = greater than 1000 nM)
9,"COc1cc(NC(=O)C(=O)c2c(C)n(Cc3ccc(Cl)cc3)c3cc(F)c(C)cc23)ccn1 [Compound 89, 2-(1-(4-chlorobenzyl)-6-fluoro-2,5-dimethyl-1H-indol-3-yl)-N-(2-methoxypyridin-4-yl)-2-oxoacetamide]",C (C = between 100 nM and 1000 nM)
10,"COc1cc(NC(=O)C(=O)c2c(C)n(Cc3ccc(Cl)cn3)c3cc(F)c(C)cc23)ccn1 [Compound 90, 2-(1-((5-chloropyridin-2-yl)methyl)-6-fluoro-2,5-dimethyl-1H-indol-3-yl)-N-(2-methoxypyridin-4-yl)-2-oxoacetamide]",D (D = greater than 1000 nM)
11,"COc1ccc2c(c1)c(C(=O)C(=O)Nc1ccnc(OC)c1)c(C)n2Cc1ncc(F)cc1F [Compound 81, 2-(1-((3,5-difluoropyridin-2-yl)methyl)-5-methoxy-2-methyl-1H-indol-3-yl)-N-(2-methoxypyridin-4-yl)-2-oxoacetamide]",D (D = greater than 1000 nM)
